Measurements taken from article PMC11187126, “Structure and dynamics of the pyroglutamylated RF-amide peptide QRFP receptor GPR103” (Nature Communications, 2024).
Read-outs that look alike come from different tables or passages of the source. No end group written: not given here.

Target: T1, GPR103 ΔCterm (Homo sapiens, UniProt Q96P65)
T1 construct: we truncated the C-terminal residues after G366 of human GPR103; expressed in transfected cells; host or cells: HEK293 cells, pCAGGS vector
T1 sequence (Q96P65 1-366): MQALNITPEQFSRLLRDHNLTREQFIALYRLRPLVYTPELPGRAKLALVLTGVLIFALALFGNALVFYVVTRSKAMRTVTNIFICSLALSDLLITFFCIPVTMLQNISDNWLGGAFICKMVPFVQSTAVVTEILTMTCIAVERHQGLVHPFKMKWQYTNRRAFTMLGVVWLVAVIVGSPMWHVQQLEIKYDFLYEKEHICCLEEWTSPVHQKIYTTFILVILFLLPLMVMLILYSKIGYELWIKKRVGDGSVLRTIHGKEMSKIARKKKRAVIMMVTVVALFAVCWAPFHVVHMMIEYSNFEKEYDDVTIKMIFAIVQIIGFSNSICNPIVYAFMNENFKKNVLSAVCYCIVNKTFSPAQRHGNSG
Test: TGFα shedding assay; Exp. level WT (1:20)
Format: cell-based
Description: For the TGFα shedding assay and the flow cytometry analysis, we used human full-length QRFPR-encoding plasmids. Specifically, GPR103 was N-terminally modified with an HA signal sequence followed by a FLAG epitope and then a flexible linker ([…]; the FLAG epitope is underlined) and inserted into the pCAGGS vector. Plasmid encoding GPR103 mutants were generated using Quickchange Site-Directed Mutagensis kit (Agilent).
The TGFα shedding assay was performed as described previously with minor modifications. Plasmid transfection was performed in a 6-well plate with a mixture of 500 ng (per well in a 6-well plate) AP-TGFα-encoding plasmid and 200 ng GPR103-encoding plasmid. After 1-day culture, the transfected cells were harvested by trypsinization, pelleted by centrifugation at 190 × g for 5 min, and washed once with 5 mM HEPES (pH 7.4)-containing Hank’s Balanced Salt Solution (HBSS). After centrifugation, the cells were resuspended in 8 mL of the HEPES-containing HBSS. The cell suspension was seeded in a 96-well culture plate (cell plate) at a volume of 90 μL (per well hereafter) and incubated in a 37 °C incubator with 5% CO2 for 30 min. […] After spinning the cell plates at 190 × g for 2 min, 80 μL of conditioned media was transferred to an empty 96-well plate (conditioned media (CM) plate). Then, 80 μL of AP reaction solution (10 mM p-nitrophenylphosphate (p-NPP), 120 mM Tris-HCl (pH 9.5), 40 mM NaCl, and 10 mM MgCl2) was dispensed into the cell plates and the CM plates. Absorbance at 405 nm of the plates was measured using a microplate reader (SpectraMax 340 PC384, Molecular Devices) before and after 1-h incubation at room temperature. Ligand-induced AP-TGFα release was calculated by subtracting spontaneous AP-TGFα release signal from ligand-induced AP-TGFα release signal. The AP-TGFα release signals were fitted to a four-parameter sigmoidal concentration–response curve, using the Prism 10 software (GraphPad Prism). For each replicate experiment, the pEC50 parameter (negative logarithmic values of EC50 values) of the individual GPR103 mutants were normalized to that of the wild-type GPR103 performed in parallel, and resulting ∆pEC50 values were used to denote ligand response activity of the mutants. […]
Exp. le vel: WT (1:5 0)Exp. le vel: WT (1:5 0)Exp. le vel: WT (1:5 0)Exp. le vel: WT (1:2 0)Exp. le vel: WT (1:2 0)Exp. le vel: WT (1:1 0) […]
L1 4N - t e r mA F2 5N - t e r mA I 2 6N - t e r mA Y 2 9N - t e r mA C 9 82 .5 7A T10 22 .6 1A Exp . l eve l: WT (1 :5)Exp . l evel : >WT (1 :1)Exp. le vel: WT (1:2 0)Exp. le vel: WT (1:2 0)Exp. le vel: WT (1:5 0)Exp . l eve l: WT (1 :1) […]
Exp. le vel: WT (1:1 0)Exp. le vel: WT (1:2 0) C 1 1 83 .2 5AExp. le vel: WT (1:5 0)Exp. le vel: WT (1:5 0)Exp. le vel: WT (1:2 0)Exp . l eve l: WT (1 :5) […]
Exp. le vel: WT (1:5 0)Exp. le vel: WT (1:1 0)Exp. le vel: WT (1:5 0) E203ECL2AExp . l evel : >WT (1 :1)Exp. le vel: WT (1:5 0)Exp. le vel: WT (1:5 0) […]
Exp . l eve l: WT (1 :1) F28Exp. le vel: WT (1:5 0) C 2 8 56 .4 7AExp. le vel: WT (1:2 0) WExp. le vel: WT (1:2 0) F28Exp. le vel: WT (1:5 0)Exp . l evel : >WT (1 :1) […]
Exp. le vel: WT (1:5 0)Exp. le vel: WT (1:5 0) C 3 2 77 .4 8AExp . l eve l: WT (1 :5)Exp . l evel : >WT (1 :1)Exp . l evel : >WT (1 :1) […]
Suppl eme nt ary Figure 1 | Mutational analysis of GPR103. […]
mutants. Data are presented as mean values ± SEM, normally n=3-5; dots), each performed in triplicate. b-d Cell-surface expression (b) and QRFP26-in-duced activation of GPR103 (c, d) were analyzed by the flow cytometry and the TGFα shedding assay, respectively. From the concentration–response curves (a), Emax (c) and ΔpEC50 (d) values relative to the wild type were calculated. Colors in the mutant bars indicate an expression level matching to that of titrated wild type. Statistical analyses were performed using the ordinary one-way ANOVA followed by Dunnett tests with the expression-matched […]

Substance: TSGPLGNLAEELNGYSRKKGGFSFRF-NH2 [QRFP26]
- Emax (Exp. #1): 83.85 % WT
- Emax (Exp. #2): 86.40 % WT
- Emax (Exp. #3): 89.99 % WT
- Emax (mean, read-out: Emax): 86.8%
- EC50 (n = 3): 11.2 nM
